# Source: US8952048B2, “Treatment of immune disorders using kainate receptor antagonists” (Virginia Commonwealth University, priority 2010, dated 2015)
# “Also recorded” adds a separate entry of the source.
# What was measured:
# [1] = test system: primary B cells; test: ADAM10 mRNA by qPCR in primary B cells; assay type: cell-based, human; conditions: 5 mM KA or glutamate, 30 minutes; normalized to beta-actin
# Experimental: Alternatively when whole PBMC was used, buffy coats were obtained from the Virginia Blood Service Center (Richmond, Va.). PBMC were isolated by Ficoll gradient density centrifugation. All human studies research was performed in accordance to the Virginia Commonwealth University Institution Review Board per approved protocols. RT-PCR and qPCR. RNA was isolated via standard Trizol (Invitrogen) purification protocol and the Access Quick RT-PCR kit (Promega, Madison Wis.) was used with gene specific primers to examine for the presence of kainate receptor subunits and their transcript variants. Primers were designed using VectorNTI software (Invitrogen). Ready-made Primers® for G3PDH and all custom made primers for all sequences were synthesized by Integrated DNA Technologies (Coralville, Iowa). qPCR experiments were performed by the nucleic acid core in the ABI Prism® 7900 Sequence Detection System (Applied Biosystems, Foster City, Calif.) using the TaqMan® One Step PCR Master Mix Reagents Kit. All the samples were tested in triplicate using the following conditions: 48° C./30 min; 95° C./10 min; and 40 cycles of 95° C./15 sec and 60° C./1 min. The cycle threshold was determined to provide the optimal standard curve values (0.98 to 1.0). The probes and primers for ADAM10 (#Hs00153853_ml) were purchased from ABI. […] Relative ADAM10 mRNA is determined as a relative ratio based upon beta-actin.
# [2] = test system: primary human B cells; test: Immunoglobulin production by primary human B cells (ELISA, 14 days); assay type: cell-based; conditions: for amount of IgE produced / effect on glutamate enhancement of IgG production: 14 days; for effect on glutamate enhancement of IgG production / effect on glutamate mediated increase in IgE production: 10 μM antagonist before culture; for effect on glutamate enhancement of IgG production: 5 mM glutamate
# Experimental: (§1) Primary B cells or PBMC were cultured in the presence of 10 ng/mL IL-4 and 1 μg/mL anti-CD40 in complete culture media in the presence or absence of 5 mM KA or 5 mM Glu. When indicated, 200 ng/mL IL-21 was also added. For antagonism studies, prior to culture primary cells were treated with 10 μM vehicle (DMSO), NBQX, NS102, or TPM. After 14 days of culture, cell free supernatants were analyzed via ELISA for Ig levels. As cells are grown at various densities, line graphs represent Ig production as compared to cell density.
# (§2) To determine the effect of ADAM10 inhibition on Ig production, purified human B cells were cultured with 10 ng/mL IL-4, 1 μg/mL anti-CD40, and 200 ng/mL IL-21 in complete culture media in the presence of DMSO as vehicle control or 10 μM ADAM10 specific inhibitor. Five days later, cell free supernatants were harvested for soluble CD23 release and fourteen days later, cell free supernatants were analyzed for Ig production. ELISAs. Human sCD23 ELISA was measured using a standard sandwich ELISA approach, using a mouse anti-CD23 (Clone BU38) coating antibody and sheep anti-CD23 (both from The Binding Site Birmingham, UK). Detection is performed with a goat anti-sheep IgG tagged with HRP (Southern Biotech Birmingham, Ala.). Determination of human IgE levels utilized a monoclonal mouse anti-human IgE antibody (clone 4.15) as a capture. Samples and standards were detected using a rabbit anti-human IgE-HRP (Southern Biotech) diluted in PBS/10% FBS. Human IgG or IgM were detected using a goat anti-human IgG or IgM followed by detection with a goat anti-human IgG or IgM tagged with HRP (All from Southern Biotech). Standards for the IgG and IgM ELISAs were purchased from Sigma. IgE standards were purified from JW8 hybridoma cells as previously described (Caven et al., 2005a). All assays utilized TMB substrate (BD Pharmingen San Diego, Calif.) and the reactions were stopped with 0.18M H2SO4. Plates are read at a wavelength of 450 nm on a SpectraMax 250 and data analyzed using SOFTmax PRO 3.1.2 software (Molecular Devices, Los Angeles, Calif.).
# [3] = test system: RPMI8866 cells; test: Soluble CD23 release assay in RPMI8866 cells; assay type: cell-based, human; conditions: for effect on increase in sCD23 release caused by KAR stimulation: 50 μM antagonist 1 hr prior to 5 mM KA or Glu; for effect on baseline sCD23 release: 50 μM antagonist, no KA or Glu
# Experimental: For these studies, the CD23+ human B cell line RPMI8866 was grown in the presence or absence of 5 mM KA or Glu for 24 hours in CDMEM10 at a concentration of 1×10^6 cells/mL. For antagonist studies, prior to the addition of KA or Glu cells were pre-treated with 50 μM vehicle (DMSO), NBQX, NS 102, or TPM for one hour. After incubation, cell free supernatants were harvested and sCD23 levels determined by ELISA. […] Forty-eight hours later cell free supernatants were harvested for ELISA.
# as §2
# [4] = test system: GluK2 containing KARs; conditions: Verdoorn et al., 1994; cited from earlier work
# [5] = test system: primary human B cells; test: [3H]-thymidine proliferation assay, primary B cells; assay type: cell-based
# Experimental: (§3) When PBMC is used the cell concentration is 100,000 cells/well. […] After 96 hours of growth, a 24 hr pulse [H^3]-thymidine (Perkin Elmer) was used. Plates were then harvested using a Filtermate cell harvester onto GFC plates. Assays were read using a Topcount Plate Counter (Perkin Elmer, Waltham, Mass.).
# [6] = test system: B cells from SLE patients; test: SLE vs. normal donor B cell activity in the presence of antagonist; assay type: cell-based, human; conditions: Example 3, written in present tense
# Source text: Peripheral blood from both SLE patients and normal donors is obtained. Presence of KARS: Specific KAR primers and Western protocols are used to analyze mRNA and protein expression, respectively, in cultured B cells from SLE patients. Flow cytometry is used to confirm cell surface expression. Comparison of the expression of KARs on B cells from normal vs. SLE patients, the presence of KARs on SLE patient B cells is confirmed.
# B cells isolated from both donor populations are stimulated with anti-CD40 in the presence or absence of KAR activation to induce cellular proliferation. Differences among both groups both with and without KAR stimulation are determined. Proliferation is measured via H^3 thymidine incorporation as well as cell cycle divisions via CFSE dilution analysis.
# B cells isolated from both populations are put in culture in the presence of IL-4 and anti-CD40, the two signals required for Ig production, in the presence or absence of KAR activation. After 14 days of culture, cell free supernatants are analyzed for total IgM, IgG, and IgE via ELISA. Furthermore, specificity of human antibodies is determined by employing commercially available human anti-nuclear antibody (ANA), anti-snRNP/Smith, and anti-dsDNA ELISA kits.
# SLE vs. normal donor B cell activity is compared in the presence of at least one antagonist such as NS 102.
# [7] = test system: Human PBMC; test: Immunoglobulin production in PBMC cultures (ELISA, 14 days); assay type: cell-based
# Experimental: as §1, §2
# [8] = test system: B cells from KAR KO mice; test: In vitro culture of B cells from KAR KO mice with glutamate; assay type: cell-based, mouse; conditions: in the presence of glutamate; data not shown
# [9] = test system: Human PBMC; test: Proliferation assay, PBMC; assay type: cell-based; conditions: addition of glutamate
# Experimental: as §3
# [10] = IL-4, anti-CD40, IL-21, 5 mM glutamate, CDMEM-10, 14 days
# [11] = 10 μM pretreatment 1 hour before glutamate
# [12] = anti-CD40, IL-4, IL-21, glutamate
smiles,measurement,setting,value
"C=C(C)[C@H]1CN[C@H](C(=O)O)[C@H]1CC(=O)O [KA, kainic acid]",ADAM10 mRNA levels,[1],significant increase
same,amount of IgE produced,"[2]; IL-4 and anti-CD40, CRPMI-10, 5 mM KA or Glu",strong and statistically significant increase
same,amount of sCD23 released following KAR activation,"[3]; 5 mM KA or Glu, 24 hours, CDMEM10",significant elevation
NS(=O)(=O)c1cccc2c1c([N+](=O)[O-])cc1nc(O)c(O)nc12 [NBQX],effect on glutamate enhancement of IgG production,[2],unaffected
same,effect on glutamate mediated increase in IgE production,[2]; [10],no effect
same,effect on increase in sCD23 release caused by KAR stimulation,[3]; 24 hours,no change is observed
same,effect on baseline sCD23 release,[3],none of the antagonists have any effect
"O=C1Nc2c(cc([N+](=O)[O-])c3c2CCCC3)C1=NO [NS102, 5-Nitro-6,7,8,9-tetrahydro-1H-benzo[g]indole-2,3-dione 3-oxime]",selectivity of KAR antagonism,[4],selectively antagonizes
same,effect on glutamate-induced increase in proliferation,[5]; 10 μM pretreatment 1 hour before 5 mM glutamate,prevented
same,effect on glutamate enhancement of IgG production,[2],blocked
same,effect on glutamate mediated increase in IgE production,[2]; [10],almost completely blocks
same,effect on glutamate mediated increase in IgE production,"[2]; IL-4, anti-CD40, IL-21, 5 mM glutamate, CDMEM-10, 14 days, listed as NS-102",dramatically reduced
same,B cell hyperactivity in SLE patients,[6],overcomes the B cell hyperactivity
same,effect on glutamate increase in IgE production,[7]; [11],strongly blocked
same,effect on glutamate increase in IgG production,[7]; [11],strongly blocked
same,effect on increase in sCD23 release caused by KAR stimulation,[3]; 24 hours,could prevent the significant increase
same,effect on baseline sCD23 release,[3],none of the antagonists have any effect
"CC1(C)O[C@@H]2[C@@H](CO[C@@]3(COS(N)(=O)=O)OC(C)(C)O[C@@H]23)O1 [TPM, topiramate]",effect on glutamate mediated increase in IgE production,[2]; [10],did not influence IgE production
same,effect on increase in sCD23 release caused by KAR stimulation,[3]; 24 hours,no change is observed
same,effect on baseline sCD23 release,[3],none of the antagonists have any effect
"N[C@@H](CCC(=O)O)C(=O)O [glutamate, L-glutamic acid]",ADAM10 mRNA levels,[1],significant increase
same,cell proliferation,"[5]; 5 mM glutamate, IL-4, anti-CD40, IL-21, 96 hours plus 24 hr pulse",significant increase in proliferation
same,Ig synthesis,[8],did not show any enhanced
same,proliferation,[8],did not show any enhanced
same,sCD23 release,[8],did not show any enhanced
same,total IgG production,[2]; [10],Enhancement in IgG production was seen in all but the highest density cultures
same,total IgM levels,[2]; [10],not influenced
same,amount of IgE produced,"[2]; IL-4, anti-CD40 plus IL-21, 5 mM glutamate",much more IgE; also recorded: pronounced increase
same,IgE synthesis,[7]; [12],very strong enhancement
same,IgM production,[7]; [12],not significantly influenced
same,total IgG production,[7]; [12],IgG enhancement was seen
same,proliferation,[9],also affected
